Assay results published in patent publication US6521662B2, “Ceramide-like compounds having antioxidant property and a method for preparation thereof, and a cosmetic composition containing the same” (Pacific Corporation, priority 2000, dated 2003).

Columns and labels:
[1] = Solubility of natural ceramide and ceramide-like compounds in cosmetic solvents; type: physicochemical; details: 20° C.; dissolved at 80° C. then cooled to 20° C.
Description: The solubility of a natural ceramide and of ceramide-like compounds:
Ceramide Type 3 represented by the following formula (III) has been mainly used in cosmetics. Accordingly, in this experiment were compared solubility of the ceramide Type 3 (obtained from bovine brain) and the ceramide-like compounds of Examples 1 to 3 in various solvents such as ethanol, which have been widely used in cosmetics. Samples were dissolved in the solvents of 80° C. then cooled to 20° C.

[2] = Anti-oxidative activity using DPPH; details: 37° C. for 30 minutes; UV spectrophotometer
Description: Anti-oxidative activity using DPPH
Diphenylpicrylhydrazyl(DPPH) has been known as a radical reaction inhibitor which is stabilized by the radical reaction. Also, it has a chromophoric property with compounds having anti-oxidative activity. Therefore, this experiment utilized the above property.
About 50 ml of DPPH was introduced into the test tube. And samples were added dropwise thereto. After addition, the test tube was maintained in constant temperature bath of 37° C. for 30 minutes. The extent of color development was measured by UV spectrophotometer.

[3] = Anti-oxidative activity using linoleic acid; details: ammoniumthiocyanate, after 3 minutes, lower absorbance means higher anti-oxidative activity
Description: Anti-oxidative activity using linoleic acid
Linoleic acid is easily oxidized to be peroxide due to double bond contained therein. Therefore, this experiment utilized the above property.
The control solution employed in this experiment was prepared by adding 2.88 ml of 2.5% linoeic acid in ethanol and 9 ml of 40 mmol phosphate buffer(pH 7.0) to 200 ml of ethanol. This control solution was maintained in the dark of 40° C. And, sample solutions were prepared by adding 9.7 ml of 75% ethanol, 0.1 ml of 30% ammoniumthiocyanate and 0.1 ml of each sample, to 0.1 ml of the control solution. After 3 minutes, the absorbance was measured at 500 nm by using a UV spectrophotometer. Lower absorbance value means higher anti-oxidative activity.

| Compound | Solubility in Cetyl octanoate [1] | Solubility in Ethanol [1] | Solubility in Isopropyl palmitate [1] | Solubility in Octyl Palmitate [1] | Solubility in Octyl dodecanol [1] | Color development with DPPH (Experiment Example 5-1) [2] | Absorbance at 500 nm (Experiment Example 5-2) [3] |
| --- | --- | --- | --- | --- | --- | --- | --- |
| Cc1c(C)c2c(c(C)c1OC(=O)CCC(=O)N(CCO)CC(O)CN(CCO)C(=O)CCC(=O)Oc1c(C)c(C)c3c(c1C)CCC(C)(CCCC(C)CCCC(C)CCCC(C)C)O3)CCC(C)(CCCC(C)CCCC(C)CCCC(C)C)O2 (stereo not drawn) [Example 1, 1,3-bis(N-(2-hydroxyethyl)-α-tocopherylsuccinoylamino) -2-hydroxypropane] | >5% wt/wt % | >5% wt/wt % | >5% wt/wt % | >5% wt/wt % | >5% wt/wt % | Brown | 0.23 |
| Cc1cc(OC(=O)CCC(=O)N(CCO)CC(O)CN(CCO)C(=O)CCC(=O)Oc2cc(C)c3c(c2)CCC(C)(CCCC(C)CCCC(C)CCCC(C)C)O3)cc2c1OC(C)(CCCC(C)CCCC(C)CCCC(C)C)CC2 (stereo not drawn) [Example 2, 1,3-bis(N-(2-hydroxyethyl)-δ-tocopherylsuccinoylamino) -2-hydroxypropane] | >5% wt/wt % | >5% wt/wt % | >5% wt/wt % | >5% wt/wt % | >5% wt/wt % | Brown | 0.29 |
| Cc1c(OC(=O)CCC(=O)N(CCO)CC(O)CN(CCO)C(=O)CCC(=O)Oc2cc3c(c(C)c2C)OC(C)(CCCC(C)CCCC(C)CCCC(C)C)CC3)cc2c(c1C)OC(C)(CCCC(C)CCCC(C)CCCC(C)C)CC2 (stereo not drawn) [Example 3, 1,3-bis(N-(2-hydroxyethyl)-γ-tocopherylsuccinoylamino)-2-hydroxypropane] | >5% wt/wt % | >5% wt/wt % | >5% wt/wt % | >5% wt/wt % | >5% wt/wt % | Brown | 0.30 |
| CCCCCCCCCCCCCCCCCCCCCCCC(=O)NC(CO)C(O)C(O)CCCCCCCCCCCCCC (stereo not drawn) [Natural Ceramide (type 3), reference compound] | <1% wt/wt % | <1% wt/wt % | <1% wt/wt % | <1% wt/wt % | <1% wt/wt % |  |  |
| CC(=O)Oc1c(C)c(C)c2c(c1C)CCC(C)(CCC[C@H](C)CCC[C@H](C)CCCC(C)C)O2 (stereo partly drawn) [Vitamin E acetate, reference compound] |  |  |  |  |  | No color change | 0.44 |
| Vitamin E [reference compound] |  |  |  |  |  | No color change | 0.23 |
